# What was measured:
# [1] = test system: normal C57BL/6J mice; experiment: Induction of extra islet insulin positive β cell clusters (EIC) in normal C57BL/6J mice; type: in vivo, mouse
# Protocol: After a 1-week acclimation, female C57BL/6J mice were randomly divided into 6 groups (n=5 per group). The control group received 10 mL/kg sterile normal saline via subcutaneous injection for 10 consecutive days. The other five groups received INGAP-PP (Peptide 1) or INGAP-PP analogs Peptide 12, Peptide 16, Peptide 29 or Peptide 31 at a dose of 50 mg/kg or 5 mg/kg per day, respectively, for the same period. On day 11, the pancreas was removed from each animal, cleared of fat and lymph nodes, weighed, and fixed in 10% neutral buffered formalin (NBF) for no longer than 24 hours before processing for morphometric analysis.
# Immunohistochemistry analysis was used to assess the islet neogenic activities of peptides by measuring the number and area of extra islet insulin positive β cell clusters (EIC) of pancreatic tissues harvested from each individual group post 10 day treatment. EIC is indicative of islet neogenesis, as previously described by Lipsett and Finegood (Diabetes 51:1834-1841 (2002)).
# [2] = Peptide stability in culture medium (F-12K, 37° C., HPLC); type: physicochemical; settings: F-12K medium, 0.25 mg/mL, 0-72 hours, FIG. 2, FIG. 11
# Protocol: To determine the stability of peptides in culture medium, a certain amount of selected peptides was accurately weighed and dissolved in distilled water to 5 mg/mL as a stock solution. The stock solution was diluted to 0.25 mg/mL with F-12K medium (Gibco-BRL, Gaithersburg, Md., USA) as working solution. A volume of 100 μL of each working solution was transferred into individual sample vials. The sample vials were incubated in a 37° C. incubator for 0, 24, 48 and 72 hours before being analyzed and quantitated by HPLC. […]
# [3] = test system: STZ induced diabetic mice; experiment: Efficacy in streptozotocin (STZ) induced diabetic mice model; type: in vivo, mouse; settings: 5 mg/kg or 25 mg/kg for 20 days
# Protocol: After acclimatization in the animal facility for one week, 6-8 weeks old C57BL/6J mice were administered low dose STZ at 40 mg/kg in citrate buffer for 5 consecutive days to establish a T1D animal model. Mice with blood glucose greater than 16.7 mmol/L at 5 days post last STZ injection were included in the study. These mice were then treated with INGAP-PP (Peptide 1) or Peptide 7 at the doses of 5 mg/kg (2.5 mg/kg, bid (twice a day)) or 25 mg/kg (12.5 mg/kg, bid) for 20 days before sacrifices. Two additional groups of diabetic mice were administered either saline or a peptide (Peptide 3) composed of a scrambled sequence of amino acids from Peptide 1 as control groups. Blood glucose and insulin levels were measured, and 20 days post the last dosing of test agents, an oral glucose tolerance test (OGTT) was performed in 6 hour fasted animals to determine the effect of Peptide 1 and Peptide 7. Blood samples obtained from the tail cut for glucose determination were detected with an ACCU-CHEK™ glucometer (Roche, ACCU-CHEK® Active), and insulin levels were determined with Rat/Mouse Insulin Elisa kit (Millipore, Billerica, Mass. USA). For the OGTT, after the measurement of the basal glucose concentration (T=−30 min), mice received an oral glucose challenge at 2 g/kg and glucose values were determined by glucometer at 0, 15, 30, 60, 90 and 120 min.
# [4] = test system: normal C57BL/6J mice; experiment: Induction of small β-cell clusters in normal C57BL/6J mice (islet size distribution); type: in vivo, mouse
# Protocol: After a 1-week acclimation, C57BL/6J female mice were randomly divided into 4 groups. The two control groups received either 10 mL/kg sterile normal saline (n=4) or scrambled peptide (Peptide 3, 25 mg/kg) (n=5) via subcutaneous injection for 10 days. The other two groups received INGAP-PP (Peptide 1) or INGAP-PP analog Peptide 7 at a dose of 25 mg/kg per day respectively (n=7 per group) for the same period. Body weight and 6 hour fasting blood glucose were measured before treatment and after the last dosing of treatment. Plasma and pancreatic insulin were also measured at the end of the study. On day 11, the pancreas was removed from each animal, cleared of fat and lymph nodes, weighed, and fixed in 10% neutral buffered formalin (NBF) for no longer than 24 hours before processing for morphometric analysis.
# Immunohistochemistry analysis was used to determine pancreatic islet size distribution.
substance,measurement,setting,value
"Ac-IGLHDPSHGTLPNGS-NH2 [Peptide 31, Ac-IGLHDPSHGTLPNGS-NH2]",islet neogenesis efficacy relative to INGAP-PP,"[1]; analog 5 mg/kg vs INGAP-PP 50 mg/kg, 10 days",comparable or improved efficacy was achieved at a dose one tenth of INGAP-PP
same,number of extra islet cluster (EIC),"[1]; female C57BL/6J mice, 10 days sc, INGAP-PP 50 mg/kg, analogs 5 mg/kg per day, FIG. 9A",statistically greater than that of INGAP-PP (Peptide 1) (50 mg/kg) treated group
same,total area of EIC,"[1]; female C57BL/6J mice, 10 days sc, INGAP-PP 50 mg/kg, analogs 5 mg/kg per day, FIG. 9B",statistically greater than that of INGAP-PP (Peptide 1) (50 mg/kg) treated group
"Ac-IGLHDPSHGTLPNGS-OH [Peptide 16, Ac-IGLHDPSHGTLPNGS-OH]",stability in culture medium,[2],significantly more stable than INGAP-PP peptide in culture medium
"H-IGLHDPSHGTLPNGS-OH [Peptide 1, H-IGLHDPSHGTLPNGS-OH, reference compound]",effect on body weight or pancreas weight,[3],did not affect body weight or pancreas weight
same,"number of islets, islet size (Log [μm^2]) ranging from 2.1 to 0.7","[4]; normal female C57BL/6J mice, 25 mg/kg per day, 10 days, versus naive/control group, FIG. 7",only observed in islet size of 2.1
same,"effect on body weight, blood glucose, plasma insulin, pancreas insulin, pancreas weight","[4]; normal mice, 25 mg/kg per day sc for 10 days, compared to saline group","did not affect body weight, blood glucose, plasma insulin, pancreas insulin, or pancreas weight"
